What all share (format): functional, organism-based
The species named for assay [1] is Mus musculus. Briefly: Phototoxicity was evaluated at a concentration of 1.4 mM and with an irradiation dose of 6 J/cm**2 in mouse ear-swelling test; non-phototoxic.
For assay [2], the species on record is Mus musculus. Briefly: Phototoxicity was evaluated at a concentration of 27.7 mM at a UVA dose of 12 J/cm**2 in mouse ear-swelling test; non-phototoxic.
For assay [3], the species on record is Mus musculus. Briefly: Phototoxicity was evaluated at a concentration of 1.4 mM and with an irradiation dose of 6 J/cm**2 in mouse ear-swelling test; induced marked erythema.
The species entered for assay [4] is Mus musculus. The assay can be described thus: Phototoxicity was evaluated at a concentration of 13.9 mM and a UVA dose of 10 J/cm**2 in mouse ear-swelling test; non-phototoxic.

Calls of active or inactive are those of the source. The calls are words filed in the database; no cut-off is given here.

Regarding `C=C1CC(CCCCCCCCCCOc2c3ccoc3cc3oc(=O)ccc23)OC1=O` (centres undefined), the Phototoxicity entry in assay [1] and in assay [2] was “Not toxic” in each case.
On to `COc1c2ccoc2cc2oc(=O)ccc12`, for which the Phototoxicity entry in assay [3] is “Active”.
For the molecule `C=C1CC(CCCCCCCCCCc2cc3c(ccc4ccc(=O)oc43)o2)OC1=O` (centres undefined), the Phototoxicity entry in assay [4] is “Not toxic”.

Source of the values: ChEMBL document CHEMBL1152022, “Double-headed molecules based on linear or angular psoralen and -methylene--butyrolactone: a search for non-phototoxic potential antiproliferative compounds” (Bioorg Med Chem Lett, 1993).
